Reference: US6503885B1, “Carboxymethylgalactose derivatives” (Otsuka Pharmaceutical Co., Ltd., priority 1998, dated 2003)

Experiments:
Format in all cases: cell-based
P-selectin-IgG = assay: Binding inhibitory activity test: HL-60 cell binding to immobilized P-selectin-IgG; details: 0.3 mM test compound; HL-60 cells; 20 ng P-selectin-IgG per well; average of 5 wells ± SE
L-selectin-IgG = assay: Binding inhibitory activity test: HL-60 cell binding to immobilized L-selectin-IgG; details: 0.3 mM test compound; HL-60 cells; 100 ng L-selectin-IgG; average of 5 wells ± SE
Procedure: [The source words this procedure for another target and says it was used here with some conditions changed.] (§1) The binding inhibitory activity of the test compound was measured in terms of the inhibition of binding of premyelocytic leukemia HL-60 cells to immobilized recombinant selectin-IgG fusion proteins by addition of the test compound to the binding reaction system, in accordance with the method described in the above-identified reference.
(§2) Stated more specifically, 20 ng of purified P-selectin-IgG was added to each well of a microtiter plate (96 wells, Nunc Maxisorp) and immobilized. Phosphate buffered saline (PBS) was added to each well to make a total volume of 100 μl and the plate was allowed to stand at 4° C. overnight. The excess solution was removed by aspiration, and non-specific binding sites were blocked with PBS containing 1% bovine serum albumin (BSA) at room temperature for 1 hour. After removal of the blocking solution by aspiration, 0.3 mM of the test compound as dissolved in 100 μl of a binding buffer (RPMI1640), and 10^6 cells/ml of HL-60 cells as suspended in 100 μl of the binding buffer were added to each well. The plate was centrifuged at 500 rotations per minute for 2 minutes at room temperature, and each well was filled with the binding buffer. The plate was carefully sealed with an adhesive tape so as to avoid trapping any air bubbles. The plate was turned upside down and centrifuged at 500 rotations per minute for 10 minutes to remove unbound HL-60 cells. The adhesive tape was peeled off and the buffer was removed by aspiration. The number of cells bound/well was determined using a cell counting kit (WST-1 assay kit, product of Dojin Kagaku K.K.) (M. Ishiyama. M. Shiga, M. Mizoguchi and P. He, Chem. Pharm. Bull., 41, 1118-1122 (1994)).
(§3) The binding inhibition (%) was calculated from the number (M) of bound cells achieved in the test using the test compound and the number (N) of bound cells achieved in the comparative test not using the test compound, according to the following equation:
(§4) Binding inhibition (%)=100×(N−M)/N […]
(§5) The data were expressed as an average value of 5 wells±standard error (SE).

E-selectin-IgG = assay: Binding inhibitory activity test: HL-60 cell binding to immobilized E-selectin-IgG; details: 0.3 mM test compound; HL-60 cells; 40 ng E-selectin-IgG; average of 5 wells ± SE
Procedure: [The source words this procedure for another target and says it was used here with some conditions changed.] as §1, §2, §3, §4, §5

`CCCCCCCCCCCCCCC(CCCCCCCCCCCCCC)CO[C@@H]1O[C@H](CO)[C@H](O)[C@H](OS(=O)(=O)O)[C@H]1O` [Comparative compound, 2-(tetradecyl)hexadecyl 3-O-sulfo-β-D-galactopyranoside] was tested, and the “Binding inhibition (%) P-selectin” value (P-selectin-IgG) was 6 ± 3%, the “Binding inhibition (%) L-selectin” value (L-selectin-IgG) was 13 ± 3% and the “Binding inhibition (%) E-selectin” value (E-selectin-IgG) was 0 ± 5%.

With `CCCCCCCCCCCCCCC(CCCCCCCCCCCCCC)CO[C@@H]1O[C@H](CO)[C@H](O)[C@H](CC(=O)O)[C@H]1O` [Compound of the invention, 2-(tetradecyl)hexadecyl 3-deoxy-3-C-(carboxymethyl)-β-D-glactopyranoside] the “Binding inhibition (%) P-selectin” value (P-selectin-IgG) was 79 ± 3%, the “Binding inhibition (%) L-selectin” value (L-selectin-IgG) was 92 ± 3% and the “Binding inhibition (%) E-selectin” value (E-selectin-IgG) was 12 ± 8%.

sialyl Lewis-x [SLe^x] was tested, and the “Binding inhibition (%) P-selectin” value (P-selectin-IgG) was 3 ± 6%, the “Binding inhibition (%) L-selectin” value (L-selectin-IgG) was 0 ± 5% and the “Binding inhibition (%) E-selectin” value (E-selectin-IgG) was 0 ± 4%.
